According to article PMC5218480 (PLoS ONE, 2017):

System: MV-4-11 cells
Test: Gene expression microarray analysis (Affymetrix PrimeView) and GSEA
Assay type: cell-based, human
Parameters: RFU PODN (11730768_x_at) / Fold change /veh PODN (11730768_x_at) / RFU LINC00158 (11744669_a_at) / Fold change /veh LINC00158 (11744669_a_at) / RFU DUSP10 (11751237_a_at) / Fold change /veh DUSP10 (11751237_a_at) / RFU ID3 (11757404_x_at) / Fold change /veh ID3 (11757404_x_at) / RFU PLEKHG5 (11737974_s_at) / Fold change /veh PLEKHG5 (11737974_s_at) / RFU LRRC4B (11730491_at) / Fold change /veh LRRC4B (11730491_at) / RFU GIMAP4 (11747438_a_at) / Fold change /veh GIMAP4 (11747438_a_at) / RFU KRT8 (11758183_x_at) / Fold change /veh KRT8 (11758183_x_at) / RFU CNN1 (11734310_a_at) / Fold change /veh CNN1 (11734310_a_at) / RFU VPS37D (11726825_at) / Fold change /veh VPS37D (11726825_at) / RFU C10orf10 (11716522_x_at) / Fold change /veh C10orf10 (11716522_x_at) / RFU KIR2DL2 /// KIR2DL4 /// KIR2DL5A /// KIR2DL5B /// KIR2DS1 /// KIR2DS2 /// KIR2DS3 /// KIR2DS4 /// KIR3DL3 /// KIR3DL3 /// KIR3DS1 (11738374_at) / Fold change /veh KIR2DL2 /// KIR2DL4 /// KIR2DL5A /// KIR2DL5B /// KIR2DS1 /// KIR2DS2 /// KIR2DS3 /// KIR2DS4 /// KIR3DL3 /// KIR3DL3 /// KIR3DS1 (11738374_at) / RFU C1QL1 (11718748_at) / Fold change /veh C1QL1 (11718748_at) / RFU TMPRSS4 (11747572_a_at) / Fold change /veh TMPRSS4 (11747572_a_at) / RFU HAMP (11756126_x_at) / Fold change /veh HAMP (11756126_x_at) / RFU RNFT2 (11725882_a_at) / Fold change /veh RNFT2 (11725882_a_at) / RFU NR4A2 (11747474_a_at) / Fold change /veh NR4A2 (11747474_a_at) / RFU ABCC12 (11746883_a_at) / Fold change /veh ABCC12 (11746883_a_at) / RFU TMEM136 (11760407_x_at) / Fold change /veh TMEM136 (11760407_x_at) / RFU CLDN22 /// WWC2 (11732394_at) / Fold change /veh CLDN22 /// WWC2 (11732394_at) / RFU HLA-DPB1 (11760878_x_at) / Fold change /veh HLA-DPB1 (11760878_x_at) / RFU SPINT1 (11716480_a_at) / Fold change /veh SPINT1 (11716480_a_at) / RFU GAP43 (11754022_s_at) / Fold change /veh GAP43 (11754022_s_at) / RFU A4GNT (11735810_at) / Fold change /veh A4GNT (11735810_at) / RFU PRB3 (11715151_x_at) / Fold change /veh PRB3 (11715151_x_at) / RFU TUBB4B (11761932_at) / Fold change /veh TUBB4B (11761932_at) / RFU CAPN14 (11732068_a_at) / Fold change /veh CAPN14 (11732068_a_at) / RFU TMCC2 (11721928_a_at) / Fold change /veh TMCC2 (11721928_a_at) / RFU IRGQ (11745062_a_at) / Fold change /veh IRGQ (11745062_a_at) / RFU FAM174B (11720279_a_at) / Fold change /veh FAM174B (11720279_a_at) / RFU TMPRSS4 (11748680_a_at) / Fold change /veh TMPRSS4 (11748680_a_at) / RFU FAM212B (11763350_a_at) / Fold change /veh FAM212B (11763350_a_at) / RFU PLEKHG5 (11743358_a_at) / Fold change /veh PLEKHG5 (11743358_a_at) / RFU ZSCAN30 (11745921_a_at) / Fold change /veh ZSCAN30 (11745921_a_at) / RFU CMKLR1 (11741424_a_at) / Fold change /veh CMKLR1 (11741424_a_at) / RFU LOC101060620 /// MAPK8IP1 (11723275_at) / Fold change /veh LOC101060620 /// MAPK8IP1 (11723275_at) / RFU SPTSSB (11747773_x_at) / Fold change /veh SPTSSB (11747773_x_at) / RFU PRSS12 (11739890_at) / Fold change /veh PRSS12 (11739890_at) / RFU BIN1 (11741810_x_at) / Fold change /veh BIN1 (11741810_x_at) / RFU WNT11 (11732464_a_at) / Fold change /veh WNT11 (11732464_a_at) / RFU C10orf10 (11716521_a_at) / Fold change /veh C10orf10 (11716521_a_at) / RFU C5orf56 (11738089_at) / Fold change /veh C5orf56 (11738089_at) / RFU CYB561 (11721691_x_at) / Fold change /veh CYB561 (11721691_x_at) / RFU ANKRD19P (11752326_a_at) / Fold change /veh ANKRD19P (11752326_a_at) / RFU OR2T12 /// OR2T33 /// OR2T8 (11738714_s_at) / Fold change /veh OR2T12 /// OR2T33 /// OR2T8 (11738714_s_at) / RFU VCAN (11748164_a_at) / Fold change /veh VCAN (11748164_a_at) / RFU JSRP1 (11732532_at) / Fold change /veh JSRP1 (11732532_at) / RFU KRTAP10-11 (11738290_x_at) / Fold change /veh KRTAP10-11 (11738290_x_at) / RFU MYO3A (11730013_a_at) / Fold change /veh MYO3A (11730013_a_at) / RFU EBF3 (11725865_a_at) / Fold change /veh EBF3 (11725865_a_at) / RFU CAMK2N1 (11719241_x_at) / Fold change /veh CAMK2N1 (11719241_x_at) / RFU C5orf56 (11738088_a_at) / Fold change /veh C5orf56 (11738088_a_at) / RFU OLFML3 (11715873_a_at) / Fold change /veh OLFML3 (11715873_a_at) / RFU LOC100653217 /// NTM (11731650_a_at) / Fold change /veh LOC100653217 /// NTM (11731650_a_at) / RFU MAPK11 (11762145_a_at) / Fold change /veh MAPK11 (11762145_a_at) / RFU FIZ1 (11724087_x_at) / Fold change /veh FIZ1 (11724087_x_at) / RFU OASL (11726364_x_at) / Fold change /veh OASL (11726364_x_at) / RFU SOX15 (11748057_x_at) / Fold change /veh SOX15 (11748057_x_at) / RFU CD79A (11719716_a_at) / Fold change /veh CD79A (11719716_a_at) / RFU HIST1H1D (11736915_at) / Fold change /veh HIST1H1D (11736915_at) / RFU CASKIN2 (11723855_a_at) / Fold change /veh CASKIN2 (11723855_a_at) / RFU LOC730098 (11760151_x_at) / Fold change /veh LOC730098 (11760151_x_at) / RFU OR4N2 (11742367_at) / Fold change /veh OR4N2 (11742367_at) / RFU PRRT2 (11749266_a_at) / Fold change /veh PRRT2 (11749266_a_at) / RFU SNX32 (11753110_a_at) / Fold change /veh SNX32 (11753110_a_at) / RFU CDHR5 (11726645_a_at) / Fold change /veh CDHR5 (11726645_a_at) / RFU RCAN1 (11760418_a_at) / Fold change /veh RCAN1 (11760418_a_at) / RFU FAM167A (11723789_a_at) / Fold change /veh FAM167A (11723789_a_at) / RFU FAM26E (11764081_at) / Fold change /veh FAM26E (11764081_at) / RFU ISYNA1 (11749810_s_at) / Fold change /veh ISYNA1 (11749810_s_at) / RFU ACY1 (11761880_at) / Fold change /veh ACY1 (11761880_at) / RFU 11764098_at / Fold change /veh 11764098_at / RFU SAMD14 (11745864_x_at) / Fold change /veh SAMD14 (11745864_x_at) / RFU NPB (11741838_a_at) / Fold change /veh NPB (11741838_a_at) / RFU TMPRSS6 (11731388_a_at) / Fold change /veh TMPRSS6 (11731388_a_at) / RFU KRTAP10-2 (11738614_at) / Fold change /veh KRTAP10-2 (11738614_at) / RFU ARHGAP8 /// PRR5-ARHGAP8 (11727945_x_at) / Fold change /veh ARHGAP8 /// PRR5-ARHGAP8 (11727945_x_at) / RFU KRTAP5-7 /// NADSYN1 (11734609_at) / Fold change /veh KRTAP5-7 /// NADSYN1 (11734609_at) / RFU RASL12 (11751679_a_at) / Fold change /veh RASL12 (11751679_a_at) / RFU CDKN2B (11736163_a_at) / Fold change /veh CDKN2B (11736163_a_at) / RFU PRF1 (11729649_at) / Fold change /veh PRF1 (11729649_at) / RFU, ZNF638 /// ZNF638-IT1 / Fold change vs veh, ZNF638 /// ZNF638-IT1 / RFU, PANK3 / Fold change vs veh, PANK3 / RFU, SH3YL1 / Fold change vs veh, SH3YL1 / RFU, ZEB2 / Fold change vs veh, ZEB2 / RFU, NRIP1 / Fold change vs veh, NRIP1 / RFU, PTTG1IP / Fold change vs veh, PTTG1IP / RFU, CAPN2 / Fold change vs veh, CAPN2 / RFU, MED14 / Fold change vs veh, MED14 / RFU, SNORA58 / Fold change vs veh, SNORA58 / RFU, C1orf63 / Fold change vs veh, C1orf63 / RFU, LRRFIP1 / Fold change vs veh, LRRFIP1 / RFU, NDUFAF7 / Fold change vs veh, NDUFAF7 / RFU, SLC12A2 / Fold change vs veh, SLC12A2 / RFU, IBTK / Fold change vs veh, IBTK / RFU, ESF1 / Fold change vs veh, ESF1 / Fold change vs veh, TMEM50B / RFU, TAOK1 / Fold change vs veh, TAOK1 / RFU, ACBD3 / Fold change vs veh, ACBD3 / RFU, TMA16 / Fold change vs veh, TMA16 / RFU, RWDD3 / Fold change vs veh, RWDD3 / RFU, BCAT1 / Fold change vs veh, BCAT1 / RFU, EDEM3 / Fold change vs veh, EDEM3 / RFU, TMEM33 / Fold change vs veh, TMEM33 / RFU, WDR75 / Fold change vs veh, WDR75 / RFU, AHCTF1 / Fold change vs veh, AHCTF1 / RFU, TFRC / Fold change vs veh, TFRC / RFU, ZDHHC17 / Fold change vs veh, ZDHHC17 / RFU, NOM1 / Fold change vs veh, NOM1 / RFU, ARL8B / Fold change vs veh, ARL8B / RFU, ZBTB11 / Fold change vs veh, ZBTB11 / RFU, TAMM41 / Fold change vs veh, TAMM41 / RFU, KIAA1704 /// LOC100996395 / Fold change vs veh, KIAA1704 /// LOC100996395 / RFU, ING1 / Fold change vs veh, ING1 / RFU, TRMT61B / Fold change vs veh, TRMT61B / RFU, FUBP3 / Fold change vs veh, FUBP3 / RFU, TP53 / Fold change vs veh, TP53 / RFU, TNKS2 / Fold change vs veh, TNKS2 / RFU, ZFP14 / Fold change vs veh, ZFP14 / RFU, ACTR2 / Fold change vs veh, ACTR2 / RFU, PPP3R1 / Fold change vs veh, PPP3R1 / RFU, PIK3R1 / Fold change vs veh, PIK3R1 / RFU, HNRNPA1 / Fold change vs veh, HNRNPA1 / RFU, RNF170 / Fold change vs veh, RNF170 / RFU, ZNF28 / Fold change vs veh, ZNF28 / RFU, RNGTT / Fold change vs veh, RNGTT / RFU, OGT / Fold change vs veh, OGT / RFU, BRD1 / Fold change vs veh, BRD1 / RFU, MARS / Fold change vs veh, MARS / RFU, ZNF655 / Fold change vs veh, ZNF655 / RFU, FAHD1 / Fold change vs veh, FAHD1 / RFU, BDP1 / Fold change vs veh, BDP1 / RFU, LRRCC1 / Fold change vs veh, LRRCC1 / RFU, ARID1A / Fold change vs veh, ARID1A / RFU, ZNF146 / Fold change vs veh, ZNF146 / RFU, ZNF330 / Fold change vs veh, ZNF330 / RFU, GPN3 / Fold change vs veh, GPN3 / RFU, C9orf123 / Fold change vs veh, C9orf123 / RFU, N4BP2L2 / Fold change vs veh, N4BP2L2 / RFU, ARFIP1 / Fold change vs veh, ARFIP1 / RFU, FAM179B / Fold change vs veh, FAM179B / RFU, BCL10 / Fold change vs veh, BCL10 / RFU, UHRF1BP1L / Fold change vs veh, UHRF1BP1L / RFU, BET1 / Fold change vs veh, BET1 / RFU, CNOT2 / Fold change vs veh, CNOT2 / RFU, ZNF268 / Fold change vs veh, ZNF268 / Fold change vs veh, ZNF507 / RFU, DGCR2 / Fold change vs veh, DGCR2 / RFU, WDSUB1 / Fold change vs veh, WDSUB1 / Fold change vs veh, HSP90B1 /// MIR3652 / RFU, ADSS / Fold change vs veh, ADSS / RFU, GK / Fold change vs veh, GK / RFU, ZNF148 / Fold change vs veh, ZNF148 / RFU, TAF9 / Fold change vs veh, TAF9 / RFU, SLC1A5 / Fold change vs veh, SLC1A5 / RFU, SLMO2 / Fold change vs veh, SLMO2 / RFU, ABCC4 / Fold change vs veh, ABCC4 / RFU, LOC101060439 /// RAP1B / Fold change vs veh, LOC101060439 /// RAP1B / RFU, RFX7 / Fold change vs veh, RFX7 / RFU, GTPBP10 / Fold change vs veh, GTPBP10 / RFU, CNEP1R1 / Fold change vs veh, CNEP1R1 / RFU, BIVM-ERCC5 /// ERCC5 / Fold change vs veh, BIVM-ERCC5 /// ERCC5 / RFU, ILF3 / Fold change vs veh, ILF3 / RFU 11762660_at / Fold change /veh 11762660_at / RFU VCAN (11757783_s_at) / Fold change /veh VCAN (11757783_s_at) / RFU DDX43 (11728927_at) / Fold change /veh DDX43 (11728927_at) / RFU KRT8 (11758188_x_at) / Fold change /veh KRT8 (11758188_x_at) / RFU NKD1 (11759106_at) / Fold change /veh NKD1 (11759106_at) / RFU SRD5A1 (11742802_a_at) / Fold change /veh SRD5A1 (11742802_a_at) / RFU TPSAB1 /// TPSB2 (11721975_s_at) / Fold change /veh TPSAB1 /// TPSB2 (11721975_s_at) / RFU GSTM3 (11746129_a_at) / Fold change /veh GSTM3 (11746129_a_at) / RFU IL23R (11737362_x_at) / Fold change /veh IL23R (11737362_x_at) / RFU TMEM51 (11727254_a_at) / Fold change /veh TMEM51 (11727254_a_at) / RFU PIWIL2 (11732686_x_at) / Fold change /veh PIWIL2 (11732686_x_at) / RFU ORM1 (11744905_x_at) / Fold change /veh ORM1 (11744905_x_at) / RFU CCDC152 (11743942_at) / Fold change /veh CCDC152 (11743942_at) / RFU ECM1 (11717891_a_at) / Fold change /veh ECM1 (11717891_a_at) / RFU IL23R (11748794_a_at) / Fold change /veh IL23R (11748794_a_at) / RFU TNFAIP8L3 (11732012_x_at) / Fold change /veh TNFAIP8L3 (11732012_x_at) / RFU MBOAT4 (11741988_at) / Fold change /veh MBOAT4 (11741988_at) / RFU 11764193_at / Fold change /veh 11764193_at / RFU TMEM53 (11763286_at) / Fold change /veh TMEM53 (11763286_at) / RFU MAGEB2 (11727129_at) / Fold change /veh MAGEB2 (11727129_at) / RFU TMEM200A (11744735_a_at) / Fold change /veh TMEM200A (11744735_a_at) / RFU CCDC152 (11751479_a_at) / Fold change /veh CCDC152 (11751479_a_at) / RFU FAM211A (11726209_a_at) / Fold change /veh FAM211A (11726209_a_at) / RFU RGS16 (11746705_a_at) / Fold change /veh RGS16 (11746705_a_at) / RFU VCAN (11755009_s_at) / Fold change /veh VCAN (11755009_s_at) / RFU RHOB (11743442_s_at) / Fold change /veh RHOB (11743442_s_at) / RFU RGS16 (11720943_a_at) / Fold change /veh RGS16 (11720943_a_at) / RFU RGS16 (11720944_at) / Fold change /veh RGS16 (11720944_at) / RFU, VPS4B / Fold change vs veh, VPS4B / RFU, CREB1 / Fold change vs veh, CREB1 / RFU, DNAJC13 / Fold change vs veh, DNAJC13 / RFU, GNAQ / Fold change vs veh, GNAQ / RFU, CDK5R1 / Fold change vs veh, CDK5R1 / RFU, ZRANB3 / Fold change vs veh, ZRANB3 / RFU, CUL4A / Fold change vs veh, CUL4A / RFU, CCNY / Fold change vs veh, CCNY / RFU, UFL1 / Fold change vs veh, UFL1 / RFU, COG3 / Fold change vs veh, COG3 / RFU, DIAPH2 / Fold change vs veh, DIAPH2 / RFU, SKA2 / Fold change vs veh, SKA2 / RFU, AFF3 / Fold change vs veh, AFF3 / RFU, LMF1 / Fold change vs veh, LMF1 / RFU, IPO11 / Fold change vs veh, IPO11 / RFU, DFFB / Fold change vs veh, DFFB / RFU, FOXP1 / Fold change vs veh, FOXP1 / RFU, CARD8 / Fold change vs veh, CARD8 / RFU, STRN3 / Fold change vs veh, STRN3 / RFU, ADK / Fold change vs veh, ADK / RFU, RASSF2 / Fold change vs veh, RASSF2 / RFU, WIPF1 / Fold change vs veh, WIPF1 / RFU, LARP1B / Fold change vs veh, LARP1B / RFU, RASA1 / Fold change vs veh, RASA1 / RFU, RB1 / Fold change vs veh, RB1 / RFU, PPFIA1 / Fold change vs veh, PPFIA1 / RFU, MAT2A / Fold change vs veh, MAT2A / RFU, CCT5 / Fold change vs veh, CCT5 / RFU, WDR92 / Fold change vs veh, WDR92 / RFU, CUX1 / Fold change vs veh, CUX1 / RFU, TTC7A / Fold change vs veh, TTC7A / RFU, TMEM135 / Fold change vs veh, TMEM135 / RFU, DEPTOR / Fold change vs veh, DEPTOR / RFU, CPM / Fold change vs veh, CPM / RFU, DNAJB6 / Fold change vs veh, DNAJB6 / RFU, CACNA2D3 / Fold change vs veh, CACNA2D3 / RFU, DTX4 / Fold change vs veh, DTX4 / RFU, TFCP2 / Fold change vs veh, TFCP2 / RFU, GMCL1 /// GMCL1P1 / Fold change vs veh, GMCL1 /// GMCL1P1 / RFU, AEBP2 / Fold change vs veh, AEBP2 / RFU, SNHG1 /// SNORD22 /// SNORD25 /// SNORD26 /// SNORD27 /// SNORD28 /// SNORD29 /// SNORD31 / Fold change vs veh, SNHG1 /// SNORD22 /// SNORD25 /// SNORD26 /// SNORD27 /// SNORD28 /// SNORD29 /// SNORD31 / Fold change (Aza/veh), C12orf56 (ProbeSet 11735607_a_at) / Fold change (ACY-1035/veh), C12orf56 (ProbeSet 11735607_a_at) / Fold change (Aza/veh), FGFR1OP (ProbeSet 11751329_s_at) / Fold change (ACY-1035/veh), FGFR1OP (ProbeSet 11751329_s_at) / Fold change (Aza/veh), VPS36 (ProbeSet 11739960_a_at) / Fold change (ACY-1035/veh), VPS36 (ProbeSet 11739960_a_at) / RFU SYPL1 (11715823_x_at) / Fold change /veh SYPL1 (11715823_x_at) / RFU IGFBP7 (11715501_s_at) / Fold change /veh IGFBP7 (11715501_s_at) / RFU REEP3 (11722064_at) / Fold change /veh REEP3 (11722064_at) / RFU IGLL1 (11728026_x_at) / Fold change /veh IGLL1 (11728026_x_at): dose or concentration left out as unconfirmed
Settings: MV-4-11 cells, 48 hours

## Nc1ccc(-c2cccs2)cc1NC(=O)c1ccc2c(c1)cc(C1CC1)n2CCN1CCOCC1 [ACY-1035]
  RFU JSRP1 (11732532_at): 43.67 RFU
